PMC9556364, “The effect of rifampin on the pharmacokinetics of famitinib in healthy subjects” (Cancer Chemotherapy and Pharmacology, 2022)
Where “and” joins values, the source holds several entries; their conditions need not be identical. Equal values may be shown once.

Assays:
[1] = cited from earlier work; for Decrease of AUC when administered simultaneously with rifampin / Decrease of Cmax when administered simultaneously with rifampin: ref 21 (imitinib), 22 (gefitinib), 23 (erlotinib), 24 (afatinib)
[2] = test system: CYP3A4; parameters: method as in PMID 23126373; conditions: recombinant human isozymes, microsomal chemical inhibition; cited from earlier work
[3] = target: T1, P-gp (Homo sapiens, UniProt P08183); experiment: In vitro P-gp interaction study in Caco-2 cells; assay type: in vitro ADME
T1 construct: endogenous in cells; host or cells: Caco-2
T1 sequence (P08183 whole entry): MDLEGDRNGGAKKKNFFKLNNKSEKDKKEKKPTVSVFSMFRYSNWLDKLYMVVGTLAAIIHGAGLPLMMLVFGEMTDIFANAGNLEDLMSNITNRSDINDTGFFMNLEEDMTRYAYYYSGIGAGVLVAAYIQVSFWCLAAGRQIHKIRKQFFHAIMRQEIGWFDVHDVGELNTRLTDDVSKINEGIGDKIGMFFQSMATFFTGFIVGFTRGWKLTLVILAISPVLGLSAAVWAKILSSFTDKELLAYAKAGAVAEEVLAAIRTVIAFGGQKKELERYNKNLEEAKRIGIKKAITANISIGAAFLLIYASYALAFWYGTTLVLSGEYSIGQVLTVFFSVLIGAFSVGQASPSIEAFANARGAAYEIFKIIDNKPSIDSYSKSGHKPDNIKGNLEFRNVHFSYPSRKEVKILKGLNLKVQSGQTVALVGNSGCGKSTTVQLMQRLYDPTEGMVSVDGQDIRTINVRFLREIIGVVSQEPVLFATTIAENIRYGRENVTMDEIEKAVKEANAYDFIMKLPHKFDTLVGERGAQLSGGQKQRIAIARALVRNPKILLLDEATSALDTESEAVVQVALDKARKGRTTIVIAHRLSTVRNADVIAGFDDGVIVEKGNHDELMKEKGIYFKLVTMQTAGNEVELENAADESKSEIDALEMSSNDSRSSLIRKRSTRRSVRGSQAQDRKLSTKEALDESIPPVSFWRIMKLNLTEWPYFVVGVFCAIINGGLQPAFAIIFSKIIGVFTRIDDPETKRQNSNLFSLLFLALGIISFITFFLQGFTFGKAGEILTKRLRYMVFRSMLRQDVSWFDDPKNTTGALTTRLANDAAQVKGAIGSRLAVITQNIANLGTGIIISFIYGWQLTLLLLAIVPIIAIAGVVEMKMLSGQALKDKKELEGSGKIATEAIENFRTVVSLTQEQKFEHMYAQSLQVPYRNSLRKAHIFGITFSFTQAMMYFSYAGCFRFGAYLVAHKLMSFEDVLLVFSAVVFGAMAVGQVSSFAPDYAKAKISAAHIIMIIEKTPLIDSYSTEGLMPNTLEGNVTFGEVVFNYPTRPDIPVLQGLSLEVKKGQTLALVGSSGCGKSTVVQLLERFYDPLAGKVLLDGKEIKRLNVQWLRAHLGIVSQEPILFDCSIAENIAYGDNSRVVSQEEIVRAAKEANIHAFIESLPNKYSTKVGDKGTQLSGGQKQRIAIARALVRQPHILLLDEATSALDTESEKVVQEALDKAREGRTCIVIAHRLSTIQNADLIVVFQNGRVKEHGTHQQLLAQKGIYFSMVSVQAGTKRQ
Description: Except as a strong CYP3A inducer, rifampin is also recognized as a substrate and inducer of permeability glycoprotein (P-gp), an important ATP-binding cassette transporter, upon multiple dosing. […] Therefore, the interaction between famitinib and P-gp as well as OATP needs to be considered, to evaluate whether the changes of famitinib exposure caused by the strong CYP3A inducer are affected.

[4] = cited from earlier work
[5] = Drug-drug interaction study: plasma pharmacokinetics of single oral famitinib 25 mg alone and with steady-state rifampin 600 mg once daily (LC-MS/MS, noncompartmental analysis); conditions: for CL/F / AUC(0-t) / AUC(0-inf) / Cmax / k el: geometric mean (geometric CV, %); for AUC(0-t): AUC0–t; for AUC(0-inf): AUC0–∞; for Tmax: median (min, max); for k el: λz
Description: The DDI study was an open-label, self-contrast study comprising the following two periods: period 1 (Days 1–9), administration of a single oral dose of famitinib 25 mg alone in the morning of study day 1; period 2 (Days 10–23), repeated administration of oral rifampin 600 mg once daily for 14 days in the morning of days 10–23, and co-administration of a single dose of famitinib 25 mg on Day 16. […] In the two periods, oral doses of famitinib were administered after an overnight fast (at least 10 h) with 240 mL room-temperature water. Subjects were forbidden to drink water within 1 h before and after taking famitinib, and the lunch and dinner were provided at 4 h and 8 h,, respectively, post-drug administration (Day 1, 16). In the second period, subjects received rifampin in the fasting state with 240 mL water and had regular meals 1 h after the dose. Cigarettes, caffeinated drinks and alcoholic products were prohibited during the whole trial period, and when the subjects stayed in the study center (Days 1–4, 10–23), the only food permitted was prepared and provided at predetermined times by the researchers.
Samples were centrifuged within 1 h at 1500xg for 10 min at 4℃ to separate the plasma, which was divided into two aliquots (drug monitoring at least 800ul and backup) and stored at – 80 °Cuntil analysis.
Plasma concentrations of famitinib were analysed using a validated liquid chromatography-tandem mass spectrometry (LC–MS/MS) method [9, 15] at Frontage Laboratories Co., Ltd (Shanghai, China). The calibration curve for famitinib covered ranges of 0.050-100 ng/ml. The low limit of qualification (LLOQ) was 0.050 ng/ml.
Pharmacokinetic (PK) parameters for famitinib in plasma were estimated by noncompartmental analysis using Phoenix WinNonlin (version 7.0, Pharsight Corporation, St Louis, MO, USA). The primary endpoints were the maximum plasma famitinib concentration (Cmax), the area under the plasma concentration–time curve from time 0 to the last measured time point (AUC0–t), and the area under the plasma concentration–time curve from time 0 to infinity (AUC0–∞). The secondary PK parameters included time to Cmax (Tmax) and the elimination half-life (T1/2), the terminal exponential rate constant (λz), the apparent total body clearance (CL/F). Cmax and Tmax were observed directly from the original concentration–time data.
All subjects who received the study drug and for whom at least one PK parameter data was available were included in the PK analysis sets. The safety analysis sets included subjects who received at least one dose of famitinib or rifampin. Statistical analysis was performed using SAS 9.4 (SAS Inc., Cary, NC, USA). […] The measurement data were expressed as mean ± standard deviation (SD), and categorical variables were described by the percentage.

[6] = Safety and tolerability (treatment emergent adverse events, CTCAE v5.0) in the DDI study; conditions: for Subjects with treatment-related TEAEs: famitinib alone Days 1–9 (1/21), rifampin alone Days 10–15 (3/21), combination Days 16–23 (4/20)
Description: Safety and tolerability were evaluated by monitoring vital signs, physical examination, laboratory tests, electrocardiogram (ECG) and adverse events (AEs). Vital signs, including body temperature, blood pressure (BP) and heart rate, were measured and ECG were performed during baseline period, before drug administration and at 4, 24, 48, 192 h after famitinib administration. Clinical laboratory tests were conducted at screening, day 9, 15, and prior to discharge. AEs, including all subjective symptoms reported by subjects and objective signs observed by clinical investigators, were collected after dosing throughout the study.
Safety parameters of the safety analysis sets were summarized using descriptive statistics. AEs were graded according to Common Terminology Criteria for Adverse Events (CTCAE, version 5.0) and coded using Medical Dictionary for Regulatory Activities (MedDRA, version 19.0) System Organ Class (SOC) and Preferred Terms (PT).

[7] = healthy volunteers, vs sunitinib alone
[8] = famitinib 25 mg with rifampin 600 mg vs alone
[9] = famitinib + rifampin period, individual subjects, LLOQ 0.050
[10] = famitinib alone period, individual subjects
[11] = male, human, plasma, po, 25 mg, famitinib 25 mg + rifampin, N = 20
[12] = male, human, plasma, po, 25 mg, famitinib 25 mg alone, N = 21

Compound: Cc1ccc(NC(=O)c2ccc(CN3CCN(C)CC3)cc2)cc1Nc1nccc(-c2cccnc2)n1 [imitinib]
- Decrease of AUC when administered simultaneously with rifampin [1]: 74%
- Decrease of Cmax when administered simultaneously with rifampin [1]: 54%

Compound: C#Cc1cccc(Nc2ncnc3cc(OCCOC)c(OCCOC)cc23)c1 [erlotinib]
- Decrease of AUC when administered simultaneously with rifampin [1]: 69%
- Decrease of Cmax when administered simultaneously with rifampin [1]: 39%

Compound: CN(C)C/C=C/C(=O)Nc1cc2c(Nc3ccc(F)c(Cl)c3)ncnc2cc1O[C@H]1CCOC1 [afatinib]
- Decrease of AUC when administered simultaneously with rifampin [1]: 34%
- Decrease of Cmax when administered simultaneously with rifampin [1]: 22%

Compound: CCN(CC)CCNC(=O)c1c(C)[nH]c(/C=C2\C(=O)Nc3ccc(F)cc32)c1C [sunitinib]
- Fold reduction in AUC on coadministration with rifampin [1, 7]: 4.8 fold
- Fold reduction in Cmax on coadministration with rifampin [1, 7]: 2.3 fold

Compound: COc1cc2ncnc(Nc3ccc(F)c(Cl)c3)c2cc1OCCCN1CCOCC1 [gefitinib]
- Decrease of AUC when administered simultaneously with rifampin [1]: 83%
- Decrease of Cmax when administered simultaneously with rifampin [1]: 65%

Compound: CCN(CC)CCN1CCc2[nH]c(/C=C3\C(=O)Nc4ccc(F)cc43)c(C)c2C1=O [famitinib, Famitinib malate]
- Pathway most important to metabolic clearance [2]: CYP3A4-mediated N-desethylation is most important
- P-gp substrate, inducer or inhibitor [3]: neither a substrate, an inducer or inhibitor
- Mean time to maximum concentration (Tmax) ([4]; 25 mg famitinib, healthy subjects): 5.9 ± 3.8 h
- Time of peak concentration (Cmax) after a single oral administration ([4]; 4–27 mg famitinib, cancer patients): 3.3 to 5.3 h
- Effect of food on the pharmacokinetics [4]: minimal effect
- Accumulation ratio (Day28/Day1) of AUC0–24 h ([4]; continuous dosing): 2.53
- Accumulation ratio (Day28/Day1) of Cmax ([4]; continuous dosing): 2.15
- Elimination via biliary-fecal route ([4]; human): approximately 56.3 % of the administered dose
- CL/F ([5]; famitinib 25 mg + rifampin, N = 20): 61.4 (16.5) L/h
- CL/F ([5]; famitinib 25 mg alone, N = 21): 18.9 (18.0) L/h
- Decrease of geometric mean AUC0–t in the presence of rifampin [5, 8]: 69%
- Decrease of geometric mean AUC0–∞ in the presence of rifampin [5, 8]: 69%
- Decrease of geometric mean Cmax in the presence of rifampin [5, 8]: 48%
- Plasma concentration of famitinib, 144h [5, 9]: BLQ<0.050 ng / mL
- Plasma concentration of famitinib, 192h [5, 9]: BLQ<0.050 ng / mL
- Plasma concentration of famitinib, before dosing [5, 9]: BLQ<0.050 ng / mL
- Plasma concentration of famitinib, 1h [5, 10]: 12.172 ng/mL and 10.070 ng/mL and 23.342 ng/mL and 11.725 ng/mL and 7.749 ng/mL and 13.952 ng/mL and 8.453 ng/mL and 16.495 ng/mL and 11.559 ng/mL and 9.713 ng/mL and 14.845 ng/mL and 9.794 ng/mL and 13.641 ng/mL and 7.456 ng/mL and 5.075 ng/mL
- Plasma concentration of famitinib, 2h [5, 10]: 19.290 ng/mL and 11.263 ng/mL and 27.171 ng/mL and 17.301 ng/mL and 11.179 ng/mL and 19.862 ng/mL and 16.456 ng/mL and 17.403 ng/mL and 19.212 ng/mL and 16.738 ng/mL and 25.161 ng/mL and 11.223 ng/mL and 13.668 ng/mL and 15.742 ng/mL and 7.198 ng/mL
- Plasma concentration of famitinib, 3h [5, 10]: 24.870 ng/mL and 24.032 ng/mL and 35.652 ng/mL and 17.196 ng/mL and 13.891 ng/mL and 21.638 ng/mL and 20.909 ng/mL and 26.523 ng/mL and 20.328 ng/mL and 19.378 ng/mL and 25.658 ng/mL and 13.587 ng/mL and 23.069 ng/mL and 22.375 ng/mL and 13.449 ng/mL
- Plasma concentration of famitinib, 4h [5, 10]: 28.028 ng/mL and 28.292 ng/mL and 40.156 ng/mL and 20.043 ng/mL and 16.081 ng/mL and 19.854 ng/mL and 21.159 ng/mL and 24.187 ng/mL and 24.994 ng/mL and 22.750 ng/mL and 36.134 ng/mL and 11.368 ng/mL and 18.316 ng/mL and 23.577 ng/mL and 15.599 ng/mL
- Plasma concentration of famitinib, 5h [5, 10]: 34.268 ng/mL and 39.992 ng/mL and 39.262 ng/mL and 34.731 ng/mL and 23.153 ng/mL and 38.641 ng/mL and 37.246 ng/mL and 34.840 ng/mL and 39.863 ng/mL and 36.023 ng/mL and 38.105 ng/mL and 23.878 ng/mL and 27.444 ng/mL and 47.892 ng/mL
- Plasma concentration of famitinib, 6h [5, 10]: 43.837 ng/mL and 41.218 ng/mL and 38.122 ng/mL and 30.476 ng/mL and 37.003 ng/mL and 33.261 ng/mL and 32.099 ng/mL and 44.461 ng/mL and 40.451 ng/mL and 44.411 ng/mL and 30.717 ng/mL and 31.790 ng/mL and 38.642 ng/mL
- Plasma concentration of famitinib, 8h [5, 10]: 36.756 ng/mL and 37.274 ng/mL and 37.931 ng/mL and 31.453 ng/mL and 34.655 ng/mL and 28.227 ng/mL and 26.193 ng/mL and 38.443 ng/mL and 33.433 ng/mL and 40.722 ng/mL and 30.892 ng/mL and 27.531 ng/mL and 41.552 ng/mL
- Plasma concentration of famitinib, before dosing ([5]; famitinib alone period, individual subjects, LLOQ 0.050): BLQ<0.050 ng / mL
- concentration at 6 h ([5]; human, plasma, oral, 25 mg, Plasma concentration of famitinib, famitinib alone period, individual subjects): 44.3 ng/mL
- concentration at 8 h ([5]; human, plasma, oral, 25 mg, Plasma concentration of famitinib, 8h, famitinib alone period, individual subjects): 42.1 ng/mL
- concentration at 12 h ([5]; human, plasma, oral, 25 mg, Plasma concentration of famitinib, 12h, famitinib alone period, individual subjects): 22.5 ng/mL
- concentration at 24 h ([5]; human, plasma, oral, 25 mg, Plasma concentration of famitinib, 24h, famitinib alone period, individual subjects): 14 ng/mL
- concentration at 48 h ([5]; human, plasma, oral, 25 mg, Plasma concentration of famitinib, 48h, famitinib alone period, individual subjects): 7.26 ng/mL
- concentration at 6 h ([5]; human, plasma, oral, Plasma concentration of famitinib, famitinib + rifampin period, individual subjects): 22 ng/mL
- concentration at 144 h ([5]; human, plasma, oral, Plasma concentration of famitinib, 144h, famitinib + rifampin period, individual subjects, LLOQ 0.050): 0.063 ng/mL
- half-life ([5]; male, human, plasma, po, 25 mg): 33.9 h
- AUC(0-t) [5, 11]: 405 ng·h/mL
- AUC(0-t) [5, 12]: 1300 ng·h/mL
- AUC(0-inf) [5, 11]: 407 ng·h/mL
- AUC(0-inf) [5, 12]: 1320 ng·h/mL
- Cmax ([5]; male, human, plasma, po, 25 mg, famitinib 25 mg + steady-state rifampin 600 mg once daily, N = 20): 20.1 ng/mL
- Cmax ([5]; male, human, plasma, po, 25 mg, famitinib 25 mg single oral dose alone, N = 21): 38.7 ng/mL
- Tmax [5, 11]: 5.5 h
- Tmax [5, 12]: 6 h
- k el [5, 11]: 1.08e-05 s⁻¹
- k el [5, 12]: 5.83e-06 s⁻¹
- Subjects with treatment-related TEAEs [6]: 4.8%
- Tolerability ([6]; single dose famitinib 25 mg, alone and in combination with multiple doses of rifampin): well tolerated
- Subjects reporting treatment emergent adverse events (TEAEs) ([6]; whole study, 8/21 subjects, all grade 1–2): 38.1%

Compound: CO[C@H]1/C=C/O[C@@]2(C)Oc3c(C)c(O)c4c(O)c(c(/C=N/N5CCN(C)CC5)c(O)c4c3C2=O)NC(=O)/C(C)=C\C=C\[C@H](C)[C@H](O)[C@@H](C)[C@@H](O)[C@@H](C)[C@H](OC(C)=O)[C@@H]1C [rifampin, Rifampicin]
- Subjects with treatment-related TEAEs [6]: 14.3%
